Consider 16 compounds from patent US20260028354A1, “TETRAHYDRONAPHTHALENE DERIVATIVES AS ESTROGEN RECEPTOR DEGRADERS” (REGENT OF THE UNIVERSITY OF MICHIGAN, priority 2022, published 2026).

Usually DC50 stands for the concentration giving 50% degradation.

A short description of the experiment: Western blot analysis for "B" compounds. The note with it: read-out: Traditional Western Degradation Potency (DC50). Type of experiment: cell-based. How it is done:
Western Blot Analysis. Western blot analysis was performed essentially as described previously. The cells treated with indicated compounds were lysed in Radioimmunoprecipitation Assay Protein Lysis and Extraction Buffer (25 mmol/I. Tris.HCl, pH 7.6, 150 mmol/L, NaCl, 1% Nonidet P-40, 1% sodium deoxycholate, and 0.1% sodium dodecyl sulfate) containing proteinase inhibitor cocktail (Roche Diagnostics, Mannheim, Germany). Equal amounts of total protein were electrophoresed through 10% SDS-polyacrylamide gels after determination of protein concentration by BCA assay (Fisher Scientific, Pittsburgh, PA), The separated protein bands were transferred onto PVDF membranes (GE Healthcare Life Sciences, Marlborough, MA) and blotted against different antibodies, as indicated. The blots were scanned, and the band intensities were quantified using GelQuant.NET software provided by biochemlabsolutions.com. The relative mean intensity of target proteins was expressed after normalization to the intensity of glyceraldehyde-3-phosphate dehydrogenase bands.
On the technique in general: A western blot detects proteins with antibodies after separation by electrophoresis.

`O=C1CCC(N2C(=O)c3cc4c(cc3C2=O)CN(C(=O)CN2CCC3(CC2)CCN(c2c(F)cc([C@@H]5c6ccc(O)cc6CC[C@@H]5c5ccccc5)cc2F)C3)C4)C(=O)N1` (mixture of isomers) [Compound B34, 6-(2-(2-(2,6-difluoro-4-((1R,2S)-6-hydroxy-2-phenyl-1,2,3,4-tetrahydronaphthalen-1-yl)phenyl)-2,8-diazaspiro[4.5]decan-8-yl)acetyl)-2-(2,6-dioxopiperidin-3-yl)-6,7-dihydropyrrolo[3,4-f]isoindole-1,3(2H,5H)-dione]: the 50% degradation concentration (DC50) is above 100 nM.

With `O=C1CCC(N2C(=O)c3cc4c(cc3C2=O)CN(CC2CCN(C(=O)C3CN(c5ccc([C@@H]6c7ccc(O)cc7CC[C@@H]6c6ccccc6)cc5)C3)CC2)C4)C(=O)N1` (mixture of isomers) [Compound B35, 2-(2,6-dioxopiperidin-3-yl)-6-((1-(1-(4-((1R,2S)-6-hydroxy-2-phenyl-1,2,3,4-tctrahydronaphthalcn-1-yl)phcnyl)azctidinc-3-carbonyl)piperidin-4-yl)methyl)-6,7-dihydropyrrolo[3,4-f]isoindole-1,3(2H,5H)-dione], the DC50 fell in the range of 10 to 100 nM.

Turning to `O=C1CCC(N2C(=O)c3cc4c(cc3C2=O)CN(C(=O)CN2CCC3(CC2)CCN(c2ccc([C@@H]5c6ccc(B(O)O)cc6CC[C@@H]5c5ccccc5)cc2)CC3)C4)C(=O)N1` (mixture of isomers) [Compound B51, ((5R,6S)-5-(4-(9-(2-(6-(2,6-dioxopiperidin-3-yl)-5,7-dioxo-3,5,6,7-tetrahydropyrrolo[3,4-f]isoindol-2(1H)-yl)-2-oxoethyl)-3,9-diazaspiro[5.5]undecan-3-yl)phenyl)-6-phenyl-5,6,7,8-tetrahydronaphthalen-2-yl)boronic acid], the DC50 was above 100 nM.

On to `O=C1CCC(N2C(=O)c3cc4c(cc3C2=O)CN(CC(=O)N2CCC3(CC2)CCN(c2ccc([C@H]5c6ccc(O)cc6CC[C@H]5c5ccccc5)cn2)CC3)C4)C(=O)N1` (mixture of isomers) [Compound B81, 2-(2,6-dioxopiperidin-3-yl)-6-(2-(9-(5-((1R,2R)-6-hydroxy-2-phenyl-1,2,3,4-tetrahydronaphthalen-1-yl)pyridin-2-yl)-3,9-diazaspiro[5.5]undecan-3-yl)-2-oxoethyl)-6,7-dihydropyrrolo[3,4-f]isoindole-1,3(2H,5H)-dione], for which the DC50 is above 100 nM.

As for `O=C1CCC(N2C(=O)c3cc4c(cc3C2=O)CN(CC(=O)N2CCC3(CC2)CCN(c2ncc([C@H]5c6ccc(O)cc6CC[C@H]5c5ccccc5)cn2)CC3)C4)C(=O)N1` (mixture of isomers) [Compound B82, 2-(2,6-dioxopiperidin-3-yl)-6-(2-(9-(5-((1R,2R)-6-hydroxy-2-phenyl-1,2,3,4-tetrahydronaphthalen-1-yl)pyrimidin-2-yl)-3,9-diazaspiro[5.5]undecan-3-yl)-2-oxoethyl)-6,7-dihydropyrrolo[3,4-f]isoindole-1,3(2H,5H)-dione], the DC50 was above 100 nM.

`O=C1CCC(N2C(=O)c3cc4c(cc3C2=O)CN(CC(=O)N2CCC3(CC2)CCN(c2cnc([C@H]5c6ccc(O)cc6CC[C@H]5c5ccccc5)cn2)CC3)C4)C(=O)N1` (mixture of isomers) [Compound B85, 2-(2,6-dioxopiperidin-3-yl)-6-(2-(9-(5-((1R,2R)-6-hydroxy-2-phenyl-1,2,3,4-tetrahydronaphthalen-1-yl)pyrazin-2-yl)-3,9-diazaspiro[5.5]undecan-3-yl)-2-oxoethyl)-6,7-dihydropyrrolo[3,4-f]isoindole-1,3(2H,5H)-dione]: the DC50 was above 100 nM.

On to `O=C1CCC(N2C(=O)c3cc4c(cc3C2=O)CN(CC(=O)N2CCC3(CC2)CCN(c2ccc([C@H]5c6ccc(O)cc6CC[C@H]5c5ccccc5)nc2)CC3)C4)C(=O)N1` (mixture of isomers) [Compound B86, 2-(2,6-dioxopiperidin-3-yl)-6-(2-(9-(6-((1R,2R)-6-hydroxy-2-phenyl-1,2,3,4-tetrahydronaphthalen-1-yl)pyridin-3-yl)-3,9-diazaspiro[5.5]undecan-3-yl)-2-oxoethyl)-6,7-dihydropyrrolo[3,4-f]isoindole-1,3(2H,5H)-dione], for which the DC50 was above 100 nM.

With `O=C1CCC(N2Cc3cc4c(cc3C2=O)CN(CC(=O)N2CCC3(CCN(c5ccc([C@@H]6c7ccc(O)cc7CC[C@@H]6c6ccccc6)cc5)CC3)C2)C4)C(=O)N1` (mixture of isomers) [Compound B182, 3-(6-(2-(8-(4-((1R,2S)-6-hydroxy-2-phenyl-1,2,3,4-tetrahydronaphthalen-1-yl)phenyl)-2,8-diazaspiro[4.5]decan-2-yl)-2-oxoethyl)-1-oxo-3,5,6,7-tetrahydropyrrolo[3,4-f]isoindol-2(1H)-yl)piperidine-2,6-dione], the DC50 lay in the range of 10 to 100 nM.

For `O=C1CCC(N2Cc3cc4c(cc3C2=O)CN(CC(=O)N2CCC3(CC2)CN(c2ccc([C@@H]5c6ccc(O)cc6CC[C@@H]5c5ccccc5)cc2)C3)C4)C(=O)N1` (mixture of isomers) [Compound B183, 3-(6-(2-(2-(4-((1R,2S)-6-hydroxy-2-phenyl-1,2,3,4-tetrahydronaphthalen-1-yl)phenyl)-2,7-diazaspiro[3.5]nonan-7-yl)-2-oxoethyl)-1-oxo-3,5,6,7-tetrahydropyrrolo[3,4-f]isoindol-2(1H)-yl)piperidine-2,6-dione], the half-maximal degradation concentration (DC50) was below 10 nM.

Take `O=C1CCC(N2Cc3cc4c(cc3C2=O)CN(CC(=O)N2CCC3(C2)CN(c2ccc([C@@H]5c6ccc(O)cc6CC[C@@H]5c5ccccc5)cc2)C3)C4)C(=O)N1` (mixture of isomers) [Compound B184, 3-(6-(2-(2-(4-((1R,2S)-6-hydroxy-2-phenyl-1,2,3,4-tetrahydronaphthalen-1-yl)phenyl)-2,6-diazaspiro[3.4]octan-6-yl)-2-oxoethyl)-1-oxo-3,5,6,7-tetrahydropyrrolo[3,4-f]isoindol-2(1H)-yl)piperidine-2,6-dione]: the DC50 was below 10 nM.

On to `O=C1CCC(N2C(=O)c3cc4c(cc3C2=O)CN(CC(=O)N2CCC3(CCN(c5ccc([C@@H]6c7ccc(O)cc7CC[C@@H]6c6ccccc6)cc5)CC3)C2)C4)C(=O)N1` (mixture of isomers) [Compound B185, 2-(2,6-dioxopiperidin-3-yl)-6-(2-(8-(4-((1R,2S)-6-hydroxy-2-phenyl-1,2,3,4-tetrahydronaphthalen-1-yl)phenyl)-2,8-diazaspiro[4.5]decan-2-yl)-2-oxoethyl)-6,7-dihydropyrrolo[3,4-f]isoindole-1,3(2H,5H)-dione], for which the DC50 was in the range of 10 to 100 nM.

Regarding `O=C1CCC(N2C(=O)c3cc4c(cc3C2=O)CN(CC(=O)N2CCC3(CC2)CN(c2ccc([C@@H]5c6ccc(O)cc6CC[C@@H]5c5ccccc5)cc2)C3)C4)C(=O)N1` (mixture of isomers) [Compound B186, 2-(2,6-dioxopiperidin-3-yl)-6-(2-(2-(4-((1R,2S)-6-hydroxy-2-phenyl-1,2,3,4-tetrahydronaphthalen-1-yl)phenyl)-2,7-diazaspiro[3.5]nonan-7-yl)-2-oxoethyl)-6,7-dihydropyrrolo[3,4-f]isoindole-1,3(2H,5H)-dione], the DC50 lay within 10 to 100 nM.

As for `O=C1CCC(N2C(=O)c3cc4c(cc3C2=O)CN(CC(=O)N2CCC3(C2)CN(c2ccc([C@@H]5c6ccc(O)cc6CC[C@@H]5c5ccccc5)cc2)C3)C4)C(=O)N1` (mixture of isomers) [Compound B187, 2-(2,6-dioxopiperidin-3-yl)-6-(2-(2-(4-((1R,2S)-6-hydroxy-2-phenyl-1,2,3,4-tetrahydronaphthalen-1-yl)phenyl)-2,6-diazaspiro[3.4]octan-6-yl)-2-oxoethyl)-6,7-dihydropyrrolo[3,4-f]isoindole-1,3(2H,5H)-dione], the DC50 lay in the range of 10 to 100 nM.

Take `O=C1CCC(N2C(=O)c3cc4c(cc3C2=O)CN(CC(=O)N2CC3(C2)CN(c2ccc([C@@H]5c6ccc(O)cc6CC[C@@H]5c5ccc(F)cc5)cc2)C3)C4)C(=O)N1` (mixture of isomers) [Compound B188, 2-(2,6-dioxopipcridin-3-yl)-6-(2-(6-(4-((1R,2S)-2-(4-fluorophenyl)-6-hydroxy-1,2,3,4-tetrahydronaphthalen-1-yl)phenyl)-2,6-diazaspiro[3.3]heptan-2-yl)-2-oxoethyl)-6,7-dihydropyrrolo[3,4-f]isoindole-1,3(2H,5H)-dione]: the DC50 lay in the range of 10 to 100 nM.

Regarding `O=C1CCC(N2C(=O)c3cc4c(cc3C2=O)CN(C(=O)CN2CCC3(CC2)CCN(c2ccc([C@@H]5c6ccc(O)cc6CC[C@@H]5c5ccccc5)cc2)CC3)CC4)C(=O)N1` (mixture of isomers) [Compound B190, 2-(2,6-dioxopiperidin-3-yl)-6-(2-(9-(4-((1R,2S)-6-hydroxy-2-phenyl-1,2,3,4-tetrahydronaphthalen-1-yl)phenyl)-3,9-diazaspiro[5.5]undecan-3-yl)acetyl)-5,6,7,8-tetrahydro-1H-pyrrolo[3,4-g]isoquinoline-1,3(2H)-dione], the DC50 was above 100 nM.

For `O=C1CCC(N2C(=O)c3cc4c(cc3C2=O)CN(CC(=O)N2CCC3(CC2)CCN(c2ccc([C@@H]5c6ccc(O)cc6CC[C@@H]5c5ccccc5)cc2)CC3)CC4)C(=O)N1` (mixture of isomers) [Compound B191, 2-(2,6-dioxopiperidin-3-yl)-6-(2-(9-(4-((1R,2S)-6-hydroxy-2-phenyl-1,2,3,4-tetrahydronaphthalen-1-yl)phenyl)-3,9-diazaspiro[5.5]undecan-3-yl)-2-oxoethyl)-5,6,7,8-tetrahydro-1H-pyrrolo[3,4-g]isoquinoline-1,3(2H)-dione], the 50% degradation concentration (DC50) was 10 to 100 nM.
